The assay has as its target T1, Kir3.1/3.4 (Rattus norvegicus, UniProt P48548+P63251).
T1 construct: expressed in transfected cells
T1 sequence (P63251 1-501): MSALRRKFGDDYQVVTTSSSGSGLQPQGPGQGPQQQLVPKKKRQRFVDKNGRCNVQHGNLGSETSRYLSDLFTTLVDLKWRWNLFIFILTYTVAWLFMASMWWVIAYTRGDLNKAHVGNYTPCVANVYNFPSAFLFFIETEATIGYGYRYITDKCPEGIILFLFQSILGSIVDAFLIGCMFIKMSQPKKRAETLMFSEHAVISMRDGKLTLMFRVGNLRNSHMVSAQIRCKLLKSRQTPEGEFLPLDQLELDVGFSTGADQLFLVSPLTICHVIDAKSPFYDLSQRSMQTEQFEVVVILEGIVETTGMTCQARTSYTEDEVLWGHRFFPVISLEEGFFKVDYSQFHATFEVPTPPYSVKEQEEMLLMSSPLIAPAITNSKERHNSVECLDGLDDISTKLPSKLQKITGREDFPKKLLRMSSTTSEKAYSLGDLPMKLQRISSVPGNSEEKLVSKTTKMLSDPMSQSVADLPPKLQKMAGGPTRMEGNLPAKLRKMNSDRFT
T1 sequence (P48548 1-419): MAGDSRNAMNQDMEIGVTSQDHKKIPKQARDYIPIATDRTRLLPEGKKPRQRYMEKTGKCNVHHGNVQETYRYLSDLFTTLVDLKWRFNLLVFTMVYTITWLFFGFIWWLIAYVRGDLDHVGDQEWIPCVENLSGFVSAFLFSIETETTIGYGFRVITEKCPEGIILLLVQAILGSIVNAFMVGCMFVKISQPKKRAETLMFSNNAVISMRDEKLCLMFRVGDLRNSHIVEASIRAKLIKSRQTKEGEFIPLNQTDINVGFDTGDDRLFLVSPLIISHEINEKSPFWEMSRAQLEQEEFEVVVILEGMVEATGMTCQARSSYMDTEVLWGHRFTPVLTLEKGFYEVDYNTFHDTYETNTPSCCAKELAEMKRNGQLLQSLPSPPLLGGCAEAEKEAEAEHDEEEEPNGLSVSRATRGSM
The assay can be described thus: Kir3.1/3.4 Electrophysiology Method (manual whole-cell patch clamp). Type of assay: cell-based. The conditions noted are these: Electrophysiology Method (TABLE 1). In short, it runs like this:
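Manual whole-cell patch clamp on HEK293 cells stably expressing rat Kir3.1/3.4, with GTPγS in the pipette. Cells were held at −60 mV and stepped to +60 mV, then ramped to −140 mV every 10 s. Steady-state inhibition at −140 mV was measured after subtracting leak recorded in zero-K+ bath.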
`C=CCNCC1CCN(c2ncnc3scc(-c4ccccc4)c23)CC1` [Example 94, N-[[1-(5-phenylthieno[2,3-d]pyrimidin-4-yl)-4-piperidyl]methyl]prop-2-en-1-amine] gave an IC50 below 500 nM.
For `CN(C)CCCN(C)CC1CCN(c2ncnc3scc(-c4ccccc4)c23)CC1` [Example 72, N,N,N′-trimethyl-N′-[[1-(5-phenylthieno[2,3-d]pyrimidin-4-yl)-4-piperidyl]methyl]propane-1,3-diamine], the IC50 was below 500 nM.
In turn, `CN(C)C1CCCN(CC2CCN(c3ncnc4scc(-c5ccccc5)c34)CC2)C1` (stereo not drawn) [Example 60, N,N-dimethyl-1-[[1-(5-phenylthieno[2,3-d]pyrimidin-4-yl)-4-piperidyl]methyl]piperidin-3-amine] yielded an IC50 below 500 nM.
The molecule `CN1CCC(N(C)CC2CCN(c3nc(NCCN4CCCC4)nc4scc(-c5ccccc5)c34)CC2)C1` (stereo not drawn) [Example 110] displayed an IC50 below 500 nM.
Regarding `O=C1NCCN1c1sc2ncnc(N3CCC(COCCN4CCCC4)CC3)c2c1-c1ccccc1` [Example 368], the IC50 was below 500 nM.
`OCc1sc2ncnc(N3CCC(COCCN4CCCC4)CC3)c2c1-c1ccccc1` [Example 281, [5-phenyl-4-[4-(2-pyrrolidin-1-ylethoxymethyl)-1-piperidyl]thieno[2,3-d]pyrimidin-6-yl]methanol]: the IC50 is below 500 nM.
Molecule `CN1CCC[C@H]1CCNCC1CCN(c2ncnc3scc(-c4ccccc4)c23)CC1` [Example 100] gave an IC50 below 500 nM.
`Fc1ccc(-c2csc3nc(N4CCC(COCCN5CCCC5)CC4)ncc23)cc1` [Example 152] had an IC50 below 500 nM.
`CC(=O)NC1CCN(CC2CCN(c3ncnc4scc(-c5ccccc5)c34)CC2)C1` (stereo not drawn) [Example 253] registered an IC50 below 500 nM.
The molecule `O=C(NCCN1CCCC1)C1CCN(c2ncnc3scc(-c4ccccc4)c23)C1` (stereo not drawn) [Example 270] came in with an IC50 of 500 to 3000 nM.
For the molecule `CC(C)c1csc2ncnc(N3CCC(COCCN4CCCC4)CC3)c12` [Example 265], the IC50 is below 500 nM.
For the molecule `CCN(CC)C(=O)C1CCCN(c2nc(N3CCC(CN(C)C4CCN(C)C4)CC3)c3c(-c4ccccc4)csc3n2)C1` (stereo not drawn) [Example 228], the IC50 was below 500 nM.
For `CN1CCC(N(C)CC2CCN(c3nc(N(C)CC(N)=O)nc4scc(-c5ccccc5)c34)CC2)C1` (stereo not drawn) [Example 121], the IC50 is below 500 nM.
The result for `CN1CCN(c2nc(N3CCC(CN(CCO)CCO)CC3)c3c(-c4ccccc4)csc3n2)CC1` [Example 107] reads 500 to 3000 nM; that for `CN(C)[C@H]1CCCN(CC2CCN(c3ncnc4scc(-c5ccccc5)c34)CC2)C1` [Example 215], below 500 nM; that for `Fc1ccc(-c2csc3ncnc(N4CC5C(COCCN6CC[C@H](F)C6)C5C4)c23)cc1` (stereo partly drawn) [Example 47, 5-(4-fluorophenyl)-4-[6-[2-[(3S)-3-fluoropyrrolidin-1-yl]ethoxymethyl]-3-azabicyclo[3.1.0]hexan-3-yl]thieno[2,3-d]pyrimidine], below 500 nM.
Molecule `c1ccc(-c2csc3nc(N4CCC(COCCN5CCCC5)CC4)ncc23)cc1` [Example 148, 5-phenyl-2-[4-(2-pyrrolidin-1-ylethoxymethyl)-1-piperidyl]thieno[2,3-d]pyrimidine] showed an IC50 below 500 nM.
Molecule `OCC1CCN(CC2CCN(c3ncnc4scc(-c5ccccc5)c34)CC2)C1` (stereo not drawn) [Example 95, [1-[[1-(5-phenylthieno[2,3-d]pyrimidin-4-yl)-4-piperidyl]methyl]pyrrolidin-3-yl]methanol] displayed a half-inhibitory concentration (IC50) of 500 to 3000 nM.
As for `c1ccc(-c2csc3nc(N4CCC(COCCN5CC6CC5CO6)CC4)ncc23)cc1` (stereo not drawn) [Example 154], the half-maximal inhibitory concentration (IC50) was below 500 nM.
`CCN1CCCC1CCN(C)CC1CCN(c2ncnc3scc(-c4ccccc4)c23)CC1` (stereo not drawn) [Example 87, 2-(1-ethylpyrrolidin-2-yl)-N-methyl-N-[[1-(5-phenylthieno[2,3-d]pyrimidin-4-yl)-4-piperidyl]methyl]ethanamine]: the IC50 was below 500 nM.
The value for `CN(CC1CCN(c2ncnc3scc(-c4ccccc4)c23)CC1)C1CCOC1` (stereo not drawn) [Example 203] was 500 to 3000 nM.

Values taken from US9290511B2, “Thieno-pyrimidines, useful as potassium channel inhibitors” (XENTION LIMITED, priority 2011, dated 2016).
